Read-outs that look alike come from different tables or passages of the source.
How the values were obtained:
[1] = tested on: human coronavirus strain 229E (HCoV-229E); type: cell-based; details: FGF-2 1 ng/mL to 0.003 ng/mL, XTT
[2] = tested on: SARS-CoV-2 (strain USA-WA1/2020); type: in vivo, Golden Syrian hamsters; details: lungs on D6
HAP1 cells = details: increasing concentrations of FGF-2 up to 1 ng/mL, XTT

FGF-2: Recombinant human FGF-2 (SEQ ID NO. 1, 18 kDa low molecular weight isoform); Sigma-Aldrich F0291 in Example 1, PeproTech 100-18B in Example 2
EC50 (dose-dependent enhancement of cell survival) [1]: 0.08 ng/mL | reduction in viral load compared to vehicle-treated animals ([2]; 20 μg FGF-2 intravenous on D-1, D0, D1, D2): 51% | reduction in viral load compared to vehicle-treated animals ([2]; 50 μg FGF-2 intravenous on D-1, D0, D1, D2): 73% | toxicity (HAP1 cells): without toxicity
